Measurements published in ChEMBL document CHEMBL5465560, “Selectivity Literature for EUbOPEN Chemogenomic Library” (2024).

Legend:
[1] = molecular target: T1, Histone-arginine methyltransferase CARM1 (Homo sapiens) (UniProt Q86X55); settings: KMS-26, at 3 µM
T1 sequence (whole entry): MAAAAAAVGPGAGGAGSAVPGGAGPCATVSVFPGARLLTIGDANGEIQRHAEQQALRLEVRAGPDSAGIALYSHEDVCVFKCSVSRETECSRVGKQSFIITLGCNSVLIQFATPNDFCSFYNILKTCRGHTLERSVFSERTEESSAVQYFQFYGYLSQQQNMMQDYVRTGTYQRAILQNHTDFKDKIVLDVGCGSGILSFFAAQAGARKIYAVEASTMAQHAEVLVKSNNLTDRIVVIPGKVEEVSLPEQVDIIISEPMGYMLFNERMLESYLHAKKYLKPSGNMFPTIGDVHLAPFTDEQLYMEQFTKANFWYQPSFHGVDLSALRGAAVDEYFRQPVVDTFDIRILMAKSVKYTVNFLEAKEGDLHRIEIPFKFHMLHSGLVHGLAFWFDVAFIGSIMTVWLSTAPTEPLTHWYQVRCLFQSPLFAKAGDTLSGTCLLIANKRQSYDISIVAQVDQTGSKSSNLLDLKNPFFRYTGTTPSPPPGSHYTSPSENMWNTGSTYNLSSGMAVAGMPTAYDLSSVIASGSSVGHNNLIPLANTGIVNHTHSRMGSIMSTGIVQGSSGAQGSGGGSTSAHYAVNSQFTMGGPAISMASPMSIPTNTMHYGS

[2] = molecular target: Serine/threonine-protein kinase Nek4 (Homo sapiens) (UniProt P51957); test: Selectivity interaction (KinomeScan (DiscoverX)) EUB0001079a NEK4; settings: at 1 µM
[3] = molecular target: Homeodomain-interacting protein kinase 1 (Homo sapiens, UniProt Q86Z02); test: Selectivity interaction (Kinase panel (Invitrogen)) EUB0000639a HIPK1; settings: at 200 nM
[4] = molecular target: Serine/threonine-protein kinase 10 (Homo sapiens) (UniProt O94804); test: Selectivity interaction (ActivX KiNativ screen (kinase selectivity in THP-1 cell lysates)) EUB0000639a STK10; assay type: subcellular; settings: lysate, at 5 µM
[5] = molecular target: T2, Serine/threonine-protein kinase Chk1 (Homo sapiens) (UniProt O14757); test: Selectivity interaction (Kinase screening (Upstate/Millipore)) EUB0000604a CHEK1
T2 sequence (whole entry): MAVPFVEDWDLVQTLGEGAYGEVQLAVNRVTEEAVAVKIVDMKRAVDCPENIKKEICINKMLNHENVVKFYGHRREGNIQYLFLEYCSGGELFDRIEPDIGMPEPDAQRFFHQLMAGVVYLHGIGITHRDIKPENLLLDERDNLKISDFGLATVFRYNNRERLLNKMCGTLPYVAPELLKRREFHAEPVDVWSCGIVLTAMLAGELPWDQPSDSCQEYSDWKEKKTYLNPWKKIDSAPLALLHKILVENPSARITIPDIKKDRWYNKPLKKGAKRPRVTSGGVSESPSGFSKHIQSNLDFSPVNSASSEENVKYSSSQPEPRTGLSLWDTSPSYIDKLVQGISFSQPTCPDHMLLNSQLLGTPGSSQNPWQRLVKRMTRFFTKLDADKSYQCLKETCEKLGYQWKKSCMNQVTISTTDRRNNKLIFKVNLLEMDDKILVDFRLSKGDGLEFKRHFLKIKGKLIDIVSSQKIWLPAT

[6] = molecular target: T3, Serine/threonine-protein kinase Nek2 (Homo sapiens) (UniProt P51955); test: Selectivity interaction (KinomeScan (DiscoverX)) EUB0000045b NEK2
T3 sequence (whole entry): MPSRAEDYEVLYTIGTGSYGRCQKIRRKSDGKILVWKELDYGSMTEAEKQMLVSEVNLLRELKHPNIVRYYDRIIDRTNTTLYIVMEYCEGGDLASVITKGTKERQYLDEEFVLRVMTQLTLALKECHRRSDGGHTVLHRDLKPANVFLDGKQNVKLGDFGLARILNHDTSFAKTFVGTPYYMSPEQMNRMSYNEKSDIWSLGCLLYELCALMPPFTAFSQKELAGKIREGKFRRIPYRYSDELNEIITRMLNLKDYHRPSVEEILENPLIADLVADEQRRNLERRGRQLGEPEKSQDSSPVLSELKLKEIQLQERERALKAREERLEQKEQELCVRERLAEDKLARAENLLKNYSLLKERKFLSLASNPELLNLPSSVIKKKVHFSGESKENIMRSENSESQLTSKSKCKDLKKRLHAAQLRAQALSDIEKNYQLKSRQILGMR

[7] = molecular target: T4, Ankyrin repeat and protein kinase domain-containing protein 1 (Homo sapiens) (UniProt Q8NFD2); settings: at 10 µM
T4 sequence (whole entry): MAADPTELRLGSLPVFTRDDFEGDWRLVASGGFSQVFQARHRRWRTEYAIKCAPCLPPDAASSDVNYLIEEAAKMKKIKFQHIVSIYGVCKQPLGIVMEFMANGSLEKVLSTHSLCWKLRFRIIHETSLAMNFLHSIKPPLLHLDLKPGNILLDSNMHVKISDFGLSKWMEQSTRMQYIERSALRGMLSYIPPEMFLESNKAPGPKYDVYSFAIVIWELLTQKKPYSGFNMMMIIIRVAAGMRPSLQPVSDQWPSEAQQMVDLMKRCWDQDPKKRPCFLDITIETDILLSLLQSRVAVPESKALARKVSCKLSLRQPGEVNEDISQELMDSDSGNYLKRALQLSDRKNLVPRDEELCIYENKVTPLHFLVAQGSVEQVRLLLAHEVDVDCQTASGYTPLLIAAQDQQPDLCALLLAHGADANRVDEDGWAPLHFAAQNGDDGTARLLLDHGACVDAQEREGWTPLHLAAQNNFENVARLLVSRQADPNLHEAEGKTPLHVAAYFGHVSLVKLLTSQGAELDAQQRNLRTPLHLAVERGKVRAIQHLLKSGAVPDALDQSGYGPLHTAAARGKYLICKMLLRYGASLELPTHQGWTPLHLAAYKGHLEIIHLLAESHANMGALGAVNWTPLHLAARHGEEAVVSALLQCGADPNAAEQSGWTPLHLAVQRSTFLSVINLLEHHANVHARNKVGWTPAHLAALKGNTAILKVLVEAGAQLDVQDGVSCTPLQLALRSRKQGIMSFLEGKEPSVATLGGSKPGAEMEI

[8] = molecular target: Serine/threonine-protein kinase pim-1 (Homo sapiens, UniProt P11309); test: Selectivity interaction (Kinase panel (Z-LYTE Assay)) EUB0001632a PIM1; settings: at 10 µM
[9] = molecular target: Homeodomain-interacting protein kinase 3 (Homo sapiens, UniProt Q9H422); test: Selectivity interaction (Kinase panel (Z-LYTE Assay)) EUB0001632a HIPK3; settings: at 10 µM
[10] = molecular target: Maternal embryonic leucine zipper kinase (Homo sapiens) (UniProt Q14680); test: Selectivity interaction (Kinase panel (Z-LYTE Assay)) EUB0001632a MELK; settings: at 10 µM
Sequence of Maternal embryonic leucine zipper kinase (Homo sapiens) (Q14680 whole entry, looked up): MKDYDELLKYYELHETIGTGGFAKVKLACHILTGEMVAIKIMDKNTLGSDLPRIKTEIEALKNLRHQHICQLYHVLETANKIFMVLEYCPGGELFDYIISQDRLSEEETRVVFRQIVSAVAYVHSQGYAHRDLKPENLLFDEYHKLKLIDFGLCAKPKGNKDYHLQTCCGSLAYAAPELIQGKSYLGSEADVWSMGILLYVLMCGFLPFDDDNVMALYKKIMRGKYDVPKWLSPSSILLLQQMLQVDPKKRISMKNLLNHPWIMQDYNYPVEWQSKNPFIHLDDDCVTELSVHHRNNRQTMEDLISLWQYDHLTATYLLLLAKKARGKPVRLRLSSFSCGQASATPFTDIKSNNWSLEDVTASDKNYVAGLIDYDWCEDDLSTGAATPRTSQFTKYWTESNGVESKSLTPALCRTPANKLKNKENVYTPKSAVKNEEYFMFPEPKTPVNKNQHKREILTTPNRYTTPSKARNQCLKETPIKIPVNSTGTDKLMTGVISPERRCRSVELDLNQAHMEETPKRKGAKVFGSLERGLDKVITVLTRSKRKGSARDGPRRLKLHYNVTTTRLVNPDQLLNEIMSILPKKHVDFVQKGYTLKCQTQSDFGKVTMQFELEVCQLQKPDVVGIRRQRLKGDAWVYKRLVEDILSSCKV

Sequence of Homeodomain-interacting protein kinase 3 (Q9H422 whole entry, looked up): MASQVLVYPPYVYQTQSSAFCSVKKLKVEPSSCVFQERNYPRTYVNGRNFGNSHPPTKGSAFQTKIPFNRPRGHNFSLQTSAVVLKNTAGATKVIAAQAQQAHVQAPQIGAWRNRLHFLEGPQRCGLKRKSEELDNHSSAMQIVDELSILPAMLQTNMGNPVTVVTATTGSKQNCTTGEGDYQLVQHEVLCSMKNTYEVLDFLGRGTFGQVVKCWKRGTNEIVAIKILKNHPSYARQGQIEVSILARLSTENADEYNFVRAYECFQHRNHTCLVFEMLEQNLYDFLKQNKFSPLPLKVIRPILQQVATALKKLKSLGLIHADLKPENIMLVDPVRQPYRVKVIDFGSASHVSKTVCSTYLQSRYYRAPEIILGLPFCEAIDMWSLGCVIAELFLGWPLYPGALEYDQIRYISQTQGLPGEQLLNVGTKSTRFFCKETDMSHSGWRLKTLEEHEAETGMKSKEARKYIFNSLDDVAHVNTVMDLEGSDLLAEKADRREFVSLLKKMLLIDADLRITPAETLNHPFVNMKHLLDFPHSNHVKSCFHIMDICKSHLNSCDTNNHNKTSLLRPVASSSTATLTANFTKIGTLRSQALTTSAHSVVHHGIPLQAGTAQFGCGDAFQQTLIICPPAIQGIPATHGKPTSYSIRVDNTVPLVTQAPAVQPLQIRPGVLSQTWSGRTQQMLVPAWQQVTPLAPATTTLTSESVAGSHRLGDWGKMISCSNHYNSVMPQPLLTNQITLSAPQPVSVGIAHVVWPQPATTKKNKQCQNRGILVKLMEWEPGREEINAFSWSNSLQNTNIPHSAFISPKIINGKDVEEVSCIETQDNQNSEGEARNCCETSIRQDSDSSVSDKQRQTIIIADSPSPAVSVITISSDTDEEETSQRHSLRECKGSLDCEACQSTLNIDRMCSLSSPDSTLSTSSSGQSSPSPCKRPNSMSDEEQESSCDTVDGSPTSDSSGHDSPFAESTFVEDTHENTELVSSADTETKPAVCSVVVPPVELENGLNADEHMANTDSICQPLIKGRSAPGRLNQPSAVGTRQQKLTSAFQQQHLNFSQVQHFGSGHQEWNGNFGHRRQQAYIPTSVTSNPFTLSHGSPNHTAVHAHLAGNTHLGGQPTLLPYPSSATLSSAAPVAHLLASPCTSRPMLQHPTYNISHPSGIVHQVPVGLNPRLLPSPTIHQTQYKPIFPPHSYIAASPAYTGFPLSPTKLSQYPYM
Sequence of Serine/threonine-protein kinase Nek4 (Homo sapiens) (P51957 whole entry, looked up): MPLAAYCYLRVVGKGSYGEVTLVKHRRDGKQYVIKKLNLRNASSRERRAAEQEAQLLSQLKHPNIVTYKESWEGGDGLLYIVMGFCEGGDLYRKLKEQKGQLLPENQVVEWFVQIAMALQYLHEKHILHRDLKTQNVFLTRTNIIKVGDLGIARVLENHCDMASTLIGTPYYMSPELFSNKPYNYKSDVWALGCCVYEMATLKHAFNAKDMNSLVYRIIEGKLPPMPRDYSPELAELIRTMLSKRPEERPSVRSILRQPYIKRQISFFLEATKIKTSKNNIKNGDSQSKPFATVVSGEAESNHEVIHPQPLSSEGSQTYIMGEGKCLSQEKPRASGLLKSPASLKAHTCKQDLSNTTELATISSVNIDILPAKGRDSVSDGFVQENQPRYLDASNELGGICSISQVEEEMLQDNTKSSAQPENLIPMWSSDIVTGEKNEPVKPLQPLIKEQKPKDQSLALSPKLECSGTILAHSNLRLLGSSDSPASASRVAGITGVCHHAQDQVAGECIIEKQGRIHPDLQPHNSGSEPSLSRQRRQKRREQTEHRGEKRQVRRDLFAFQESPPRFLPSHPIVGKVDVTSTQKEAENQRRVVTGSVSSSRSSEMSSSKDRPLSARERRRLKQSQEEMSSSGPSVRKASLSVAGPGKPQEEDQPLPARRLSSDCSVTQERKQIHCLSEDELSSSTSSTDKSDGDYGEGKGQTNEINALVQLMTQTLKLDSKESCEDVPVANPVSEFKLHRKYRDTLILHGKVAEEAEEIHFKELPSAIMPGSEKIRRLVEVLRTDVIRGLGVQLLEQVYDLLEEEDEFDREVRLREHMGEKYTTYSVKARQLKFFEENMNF
Sequence of Serine/threonine-protein kinase 10 (Homo sapiens) (O94804 whole entry, looked up): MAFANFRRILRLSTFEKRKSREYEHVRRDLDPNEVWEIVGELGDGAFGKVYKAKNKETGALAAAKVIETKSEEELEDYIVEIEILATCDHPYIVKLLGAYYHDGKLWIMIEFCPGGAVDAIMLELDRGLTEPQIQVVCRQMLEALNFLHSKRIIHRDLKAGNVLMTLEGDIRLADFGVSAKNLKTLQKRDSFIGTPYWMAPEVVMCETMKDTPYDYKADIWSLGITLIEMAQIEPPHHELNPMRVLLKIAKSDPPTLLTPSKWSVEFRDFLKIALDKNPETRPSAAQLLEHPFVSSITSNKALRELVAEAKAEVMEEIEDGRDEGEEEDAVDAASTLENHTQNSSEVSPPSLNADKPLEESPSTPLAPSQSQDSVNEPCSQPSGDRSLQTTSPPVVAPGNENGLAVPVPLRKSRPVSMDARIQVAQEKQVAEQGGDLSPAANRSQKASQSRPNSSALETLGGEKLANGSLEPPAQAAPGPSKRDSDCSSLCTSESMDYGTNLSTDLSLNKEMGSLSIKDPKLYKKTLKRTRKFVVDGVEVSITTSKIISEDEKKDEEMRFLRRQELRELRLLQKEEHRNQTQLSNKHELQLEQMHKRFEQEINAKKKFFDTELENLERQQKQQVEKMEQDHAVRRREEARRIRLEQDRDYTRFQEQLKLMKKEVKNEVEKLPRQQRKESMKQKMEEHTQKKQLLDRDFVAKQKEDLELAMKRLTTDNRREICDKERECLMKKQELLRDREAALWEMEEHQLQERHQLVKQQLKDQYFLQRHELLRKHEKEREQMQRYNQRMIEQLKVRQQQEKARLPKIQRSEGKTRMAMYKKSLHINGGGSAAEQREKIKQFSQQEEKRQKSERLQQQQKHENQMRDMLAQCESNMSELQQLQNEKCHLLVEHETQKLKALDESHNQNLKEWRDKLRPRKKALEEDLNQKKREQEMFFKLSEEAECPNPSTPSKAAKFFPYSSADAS
Sequence of Serine/threonine-protein kinase pim-1 (P11309 whole entry, looked up): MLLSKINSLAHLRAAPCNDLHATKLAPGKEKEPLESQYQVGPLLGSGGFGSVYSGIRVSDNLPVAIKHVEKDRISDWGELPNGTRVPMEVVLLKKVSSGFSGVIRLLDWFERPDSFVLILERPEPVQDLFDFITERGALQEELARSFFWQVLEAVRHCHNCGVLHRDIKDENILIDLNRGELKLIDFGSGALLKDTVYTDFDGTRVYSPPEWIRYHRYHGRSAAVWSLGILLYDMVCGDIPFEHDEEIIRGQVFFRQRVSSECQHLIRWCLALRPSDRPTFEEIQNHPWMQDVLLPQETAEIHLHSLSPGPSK

SMILES: CNCCN1CCC(c2cc(CN(C)C(=O)c3cccc(Oc4ccccc4)c3)ccn2)CC1
- % of growth rate [1]: -19.5%

SMILES: Nc1cnc(N2CCc3cc(S(=O)(=O)Nc4c(F)cc(Cl)cc4F)cc(N4CCCC4=O)c32)nc1 [TP-020n]
- % of control [2]: 97%

SMILES: CC[C@@H]1[C@H](F)C(=O)N[C@@H]1COc1nccc2cc(C(N)=O)c(OC)cc12 [ZIMLOVISERTIB]
- % of inhibition [3]: 7.68%
- % of inhibition [4]: -21.8%

SMILES: Cc1cnc(Nc2ccc(F)cc2Cl)nc1-c1c[nH]c(C(=O)N[C@H](CO)c2cccc(Cl)c2)c1
- % of inhibition [5]: 40%

SMILES: C=CC(=O)Nc1cc(-n2c(=O)ccc3cnc4ccc(-c5ccc(NS(C)(=O)=O)cc5)cc4c32)ccc1C
- % of control ([6]; at 1 µM): 79%
- % of control ([6]; at 10 µM): 85%

SMILES: Cc1cc([C@@H](C)Nc2ccccc2C(=O)O)c2nc(N3CCOCC3)cc(=O)n2c1 [AZD-6482]
- % of control [7]: 100%

SMILES: Cn1cc(-n2cnc3c(NCc4nc5cc(Cl)c(Cl)cc5[nH]4)nc(N4CCOCC4)nc32)cn1
- % of control [8]: -1.78%
- % of control [9]: 0.256%
- % of control [10]: 26.9%
